Tested on: agonistic autoantibodies against the β2 adrenergic receptor (immunoglobulin fraction of POAG patients)
Experiment: Neutralization of agonistic autoantibodies by synthetic peptides, beating rate of spontaneously beating neonatal rat cardiomyocytes
Assay type: cell-based
Conditions: for blocking of the stimulating effect of the antibodies by extracellular loop peptides: immunoglobulins from 6 POAG patients preexposed to peptides of the first, second and third extracellular β2 receptor loops, 0.5 μg peptide in 50 μl; for recognition of epitopes by the antibodies: 5 overlapping peptides of loop II of the β2 adrenergic receptor, FIG. 6; for effect on the antibody-induced increase in the spontaneous beating rate: immunoglobulins of 5 patients with POAG preincubated with short, overlapping peptides of the second extracellular loop of the β2 receptor, neonatal rat cardiomyocytes
Experimental: Preparation of the immunoglobulin fraction. The immunoglobulin fraction was isolated from 1- to 2-ml serum samples by ammonium sulfate precipitation at a saturation of 40%. The precipitates were washed and dissolved in dialysis buffer (154 mmol/l NaCl, 10 mmol/l sodium phosphate; pH 7.2). The procedure of precipitating, washing, and dissolving was repeated twice.
Finally, the immunoglobulins were taken up in 1 ml PBS (pH 7.2) and dialyzed at 4° C. for 30 hours against 1 l of dialysis buffer. The buffer was changed five times during dialysis. For detection of autoantibodies, the immunoglobulin fractions were added at a dilution of 1:20 or 1:40 to the flasks.
After the dialysis, the IgG fractions feature a concentration of 10-15 mg/ml, a maximum of 10 μg/ml of which are specific receptor antibodies. 50 μl of this IgG solution are pre-incubated with the peptides with the following concentration of peptides: 5 μl of a buffered solution of 100 μg/ml per 50 μl IgG solution. This mixture is pre-incubated at room temperature for 30 minutes and subsequently filled into the cell culture vials, after the former nutrient solution has been removed by pipet. The amount of the medium is 2 ml. The final concentration therefore is of […] for the IgG and 0.5 μg for the peptides. If the molecular weight of the peptide (10 mer) is set with 1 KD and that of the IgG is set with 150 KD, there is an […].
For the neutralization experiments, synthetic peptides corresponding to the sequence of the three extracellular loops of the human β2 adrenegic receptor was added in excess (0.5 μg in 50 μl) to 50 μl of the immunoglobulin fraction. The mixtures were shaken and incubated at room temperature for 1 h. The 100-μl samples were then added to neonatal rat heart muscle cells cultured in 2 ml medium to a final dilution of 1:40. The beating rate was counted for 15 s, 60 min after the addition of the peptide/immunoglobulin mixture.
For identifying the autoantibody neutralizing epitopes synthetic overlapping peptides corresponding to the sequence of the second extracellular loop of the human β2 adrenoceptor was added to the immunoglobulins. After 1 h incubation at room temperature the samples were used as described above.

Row | Substance | blocking of the stimulating effect of the antibodies by extracellular loop peptides | blocking of the stimulating effect of the antibodies by extracellular loop peptides (listed as peptides from the second extracellular loop) | recognition of epitopes by the antibodies | effect on the antibody-induced increase in the spontaneous beating rate
1 | loop II peptide: synthetic peptide corresponding to the sequence of the second extracellular loop of the human β2 adrenergic receptor (HWYRATHQEAINCYANETCCDFFTNQ) | blocks the antibody activity to stimulate the rat cardiomyocytes | blocked the effect |  | 
2 | ANETCCD [Ala-Asn-Glu-Thr-Cys-Cys-Asp] |  |  | Antibodies recognize the epitopes | abolished the increase in the spontaneous beating rate in all 5 patients tested
3 | AINCYAN [Ala-Ile-Asn-Cys-Tyr-Ala-Asn] |  |  | Antibodies recognize the epitopes | abolished the increase in the spontaneous beating rate in all 5 patients tested

— patent publication US20090220469A1, “PEPTIDES AGAINST AUTOANTIBODIES ASSOCIATED WITH GLAUCOMA AND USE OF THESE PEPTIDES” (MAX-DELBRUECK-CENTRUM FUER MOLEKULARE MEDIZIN, priority 2006, published 2009)
